# Values quoted from earlier work, collected in US20040058943A1, “Medicinal composition for treatment of chronic cardiac failure” (priority 2001, published 2004).
# Read-outs that look alike come from different tables or passages of the source.
# What was measured:
# [1] = system: model rats of heart failure after myocardial infarction; details: for effect on mortality: 9-months long-term oral administration
# [2] = system: model rats of heart failure; details: 10-week oral administration
Compound,effect on mortality ([1]; dose 30 mg/kg·day),effect on mortality ([1]; dose 100 mg/kg·day),ameliorating the left ventricular end-diastolic pressure (LVEDP) ([1]; long-term oral administration),maximum value of the first order differentiation of the left ventricular systolic pressure (LVdP/dtmax) ([1]; long-term oral administration),ameliorating the left ventricular end-diastolic pressure (LVEDP) [2],cardiac hypertrophy [2],maximum value of the first order differentiation of the left ventricular systolic pressure (LVdP/dtmax) [2]
COc1ccccc1Oc1c(NS(=O)(=O)c2ccc(C(C)(C)C)cc2)nc(-c2ncccn2)nc1OCCO [bosentan],ineffective,significantly reduces the mortality,effective,ineffective,,,
COc1cc(OC)nc(O[C@H](C(=O)O)C(OC)(c2ccccc2)c2ccccc2)n1 [darusentan],,,,,effective,ineffective,ineffective
